{
  "source": "patent US20240366539A1",
  "about": "“METHODS FOR TREATING AUTISM SPECTRUM DISORDERS” (INSTITUT NATIONAL DE LA SANTÉ ET DE LA RECHERCHE MÉDICALE, priority 2021, published 2024)",
  "key": {"Shank3^Δex13-16−/− mice": {"tested_on": "Shank3^Δex13-16−/− mice", "assay": "Three-chamber social preference test", "type": "in vivo, mouse", "settings": "Shank3Δex13-16−/− mice; chronic NaBr 250 mg/kg once daily", "protocol": "Mice were treated with vehicle (NaCl 0.9%; ip, 10 or 20 ml/kg), NaBr (Sigma-Aldrich, Saint-Quentin Fallavier, France) administered either chronically (once a day, 10, 30, 70, 125, 250 and 500 mg/kg; i.p. or per os, in a volume of 20 ml/kg—except for combination with VU0155041: […]) or acutely (250 mg/kg, 20 ml/kg), KBr (Sigma-Aldrich, Saint-Quentin Fallavier, France; 145 mg/kg; i.p., 20 ml/kg), bumetanide (R&D systems, Minneapolis, USA, 0.5 and 2 mg/kg; i.p., 20 ml/kg) or VU0155041 (Cayman Chemicals, Ann Arbor, USA, once a day, i.p., 1 mg/kg, 10 ml/kg). […] When treatment was given chronically, behavioral testing started 8 days after beginning of daily administration. Treatment was maintained for 8 to 18 consecutive days (see timelines in FIGS. 1 and 4), allowing thorough behavioral phenotyping. On testing days, or when treatment was given acutely, drugs (or vehicle) were administered 30 min before behavioral assays.\nThree-chamber social preference test. The test apparatus consisted of a transparent acrylic box (exterior walls blinded with black plastic film); partitions divided the box into three equal chambers (40×20×22.5 cm). Two sliding doors (8×5 cm) allowed transitions between chambers. Cylindrical wire cages (18×9 cm, 0.5 cm diameter-rods spaced 1 cm apart) were used to contain the mouse interactor and object (soft-toy mouse). The test was performed in low-light conditions (15 lx) to minor anxiety. Stimulus wild-type mice were habituated to confinement in wire cages for 2 days before the test (20 min/day). On testing day, the experimental animal was introduced to the middle chamber and allowed to explore the whole apparatus for a 10-min habituation phase (wire cages empty) after the sliding doors were raised. The experimental mouse was then confined back in the middle-chamber while the experimenter introduced an unfamiliar wild type age and sex-matched animal into a wire cage in one of the side-chambers and a soft toy mouse (8×10 cm) in the second wire cage as a control for novelty. Then the experimental mouse was allowed to explore the apparatus for a 10-min interaction phase. The time spent in each chamber, the time spent in nose contact with each wire cage (empty: habituation; containing a mouse or a toy: interaction), as well as the number of these nose contacts were scored a posteriori on video recordings using an ethological keyboard (Labwatcher®, View Point, Lyon, France) by trained experimenters. […] The relative position of stimulus mice (versus toy) was counterbalanced between groups.\nTo this purpose, we evaluated the effects of chronic NaBr administration at the dose of 250 mg/kg on autism-sensitive behaviors in these lines (FIG. 3A)."}, "rat mGlu4 receptor [1]": {"target": "T1, rat mGlu4 receptor (Rattus norvegicus, UniProt P31423)", "T1 construct": "expressed in transfected cells", "T1 sequence (P31423 33-912)": "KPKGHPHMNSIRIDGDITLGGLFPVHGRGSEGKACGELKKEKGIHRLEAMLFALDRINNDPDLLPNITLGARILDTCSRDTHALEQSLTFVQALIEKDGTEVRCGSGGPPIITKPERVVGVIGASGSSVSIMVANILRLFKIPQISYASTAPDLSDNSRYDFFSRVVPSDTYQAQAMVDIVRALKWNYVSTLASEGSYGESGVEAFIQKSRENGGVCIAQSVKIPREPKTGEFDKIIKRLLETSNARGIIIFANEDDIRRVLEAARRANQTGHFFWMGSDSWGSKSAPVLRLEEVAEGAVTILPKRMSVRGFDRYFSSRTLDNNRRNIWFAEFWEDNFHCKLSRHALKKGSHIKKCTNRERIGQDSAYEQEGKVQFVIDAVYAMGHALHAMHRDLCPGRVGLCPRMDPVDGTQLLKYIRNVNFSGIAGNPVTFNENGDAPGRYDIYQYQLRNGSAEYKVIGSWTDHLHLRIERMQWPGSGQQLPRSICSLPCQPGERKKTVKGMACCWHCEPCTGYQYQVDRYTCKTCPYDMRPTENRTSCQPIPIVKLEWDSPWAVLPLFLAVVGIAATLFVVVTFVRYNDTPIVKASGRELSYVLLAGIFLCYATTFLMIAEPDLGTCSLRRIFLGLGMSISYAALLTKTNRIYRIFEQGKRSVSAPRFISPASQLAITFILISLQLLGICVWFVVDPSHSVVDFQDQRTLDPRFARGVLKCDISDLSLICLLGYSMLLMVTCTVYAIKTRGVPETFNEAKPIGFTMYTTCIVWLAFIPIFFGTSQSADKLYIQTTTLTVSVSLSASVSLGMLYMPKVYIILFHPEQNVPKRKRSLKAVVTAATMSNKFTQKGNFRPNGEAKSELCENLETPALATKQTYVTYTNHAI", "assay": "IP1 accumulation assay, mGlu4 signaling under glutamate stimulation", "type": "cell-based", "experimental": "Human embryonic kidney (HEK) 293 cells were transiently transfected with rat mGlu4 receptor by electroporation together with a chimeric Gi/Gq protein to allow phospholipase activation and EAAC1, a glutamate transporter, to avoid influence of extracellular glutamate. […] 96-well plate (Greiner Bio-One) at the density of 100,000 cells per well and for IPOne assay in a PLO-coated black 96-well plate (Greiner Bio-One) at the density of 50,000 cells per well. Cells were cultured in DMEM (Gibco™, Life Technologies), supplemented with 10% fetal bovine serum. Medium was changed by GlutaMAX (Gibco™, Life Technologies) to reduce extracellular glutamate concentration 3 h before experiment. […]\nIP1 accumulation assay: Inositol monophosphate accumulation was determined using the IP-One HTRF (Homogenous Time Resolved Fluorescence) kit (Cisbio Bioassays, Perkin Elmer, Codolet, France) according to the manufacturer's recommendations (72). […]"}, "rat mGlu4 receptor [2]": {"target": "T1, rat mGlu4 receptor", "assay": "Calcium mobilization assay, mGlu4 signaling under glutamate stimulation", "type": "cell-based", "protocol": "Human embryonic kidney (HEK) 293 cells were transiently transfected with rat mGlu4 receptor by electroporation together with a chimeric Gi/Gq protein to allow phospholipase activation and EAAC1, a glutamate transporter, to avoid influence of extracellular glutamate. For calcium mobilization, cells were seeded in a PLO-coated, black-walled, clear-bottomed. 96-well plate (Greiner Bio-One) at the density of 100,000 cells per well and for IPOne assay in a PLO-coated black 96-well plate (Greiner Bio-One) at the density of 50,000 cells per well. Cells were cultured in DMEM (Gibco™, Life Technologies), supplemented with 10% fetal bovine serum. Medium was changed by GlutaMAX (Gibco™, Life Technologies) to reduce extracellular glutamate concentration 3 h before experiment.\nChloride and bromide ion concentrations in the buffers used for in vitro experiments were chosen for best matching physiological conditions. It was previously shown that the total amount of halogen (chloride and bromide ions) in the cerebrospinal fluid and serum can reach 120-130 mM (69, 70) and that bromide is able to substitute up to 30% of chloride concentration (71), leading to a theoretical concentration of 91 mM chloride and 36 mM bromide. We thus chose the dose of 100 mM chloride as physiological control (complemented with gluconate NaC6H11O7 to maintain equivalent osmolarity between buffers (56)), and added or not 50 mM chloride or bromide to assess their effects in vitro. Chemicals were purchased from Sigma-Aldrich (Merck, L'Isle D'Abeau Chesnes, France). The pH of all buffers was adjusted to 7.4 before experiments. […]\nCalcium mobilization assay: 24 h after transfection, cells were loaded with 1 μM calcium-sensitive fluorescent dye (Fluo-4 AM; Invitrogen, Life Technologies) diluted in fresh C1^− buffer (154.6 mM) for 1 h at 37° C. and 5% CO2. […] Ca^2+ release was determined using μCell FDSS (Hamamatsu Photonics). Fluoresence was recorded for 60 s at 480 nm excitation and 540 nm emission after 20 s record of baseline.\nData were analyzed using Prism 6 software (GraphPad Software, San Diego, CA, USA). […] Statistical differences between pEC50, ΔpEC50 and Emax were determined using a one-way analysis of variance followed by Tukey's post-test.\nWe measured mGlu4 signaling under glutamate stimulation in HEK293T cells transiently expressing mGlu4 receptors and Gαqi9, a Gi/Gq chimeric G-protein (57) that allows mGlu4 to activate the phosphoinositide pathway. Receptor activation was then evaluated by measuring intracellular Ca^2+ release or inositol monophosphate (IP1, FIG. 5A). […]"}, "[3]": {"settings": "stated in conclusion, no data; cited from earlier work"}},
  "data": [
    {"compound": "[Br-].[Na+]", "note": "[NaBr, sodium bromide]", "values": [
      {"measurement": "duration of nose contacts with the mouse versus the toy", "setting": "Shank3^Δex13-16−/− mice", "value": "made longer nose contacts with their congener versus the toy"},
      {"measurement": "number of nose contacts", "setting": "Shank3^Δex13-16−/− mice", "value": "no change in the number of nose contacts"},
      {"measurement": "preference ratio", "setting": "Shank3^Δex13-16−/− mice", "value": "increased preference ratio"},
      {"measurement": "time in contact with the mouse versus the toy", "setting": "Shank3^Δex13-16−/− mice", "value": "spent more time in contact with the mouse"},
      {"measurement": "increase in glutamate efficacy (Emax, maximal IP1 production)", "setting": "rat mGlu4 receptor [1]; HEK293 cells, mGlu4 + Gαqi9, bromide", "value": "60±10", "unit": "%"},
      {"measurement": "ΔpEC50 of glutamate between physiological Cl− concentration and after addition of Br−", "setting": "rat mGlu4 receptor [1]; addition of Br− (so in the source)", "value": "0.42±0.03"},
      {"measurement": "increase in glutamate pEC50", "setting": "rat mGlu4 receptor [2]; HEK293 cells, mGlu4 + Gαqi9, addition of 50 mM bromide versus physiological chloride (100 mM Cl− + 50 mM gluconate)", "value": "0.73±0.05", "unit": "log"},
      {"measurement": "ΔpEC50 of glutamate, bromide versus equivalent concentration of chloride", "setting": "rat mGlu4 receptor [2]; HEK293 cells, mGlu4 + Gαqi9, compared with +50 mM Cl−", "value": "0.27±0.04"},
      {"measurement": "rise in maximal mGlu4-triggered calcium release (Emax)", "setting": "rat mGlu4 receptor [2]; HEK293 cells, mGlu4 + Gαqi9, glutamate, bromide versus physiological chloride", "value": "65±9", "unit": "%"},
      {"measurement": "modulation of mGlu4 (PAM behaviour)", "setting": "rat mGlu4 receptor [2]; calcium mobilization assay, 100 mM Cl− + 50 mM Br−, broader effects than chloride ions on pEC50 and Emax", "value": "behave as PAM of mGlu4"},
      {"measurement": "brain penetrance", "setting": "[3]", "value": "excellent"},
      {"measurement": "oral bioavailability", "setting": "[3]", "value": "excellent oral bioavailability"}
    ]}
  ]
}
